Assay results: ChEMBL document CHEMBL3046775, “Synthesis and evaluation of 7-substituted-3,4-dihydrobenzo[f][1,4]oxazepin-5(2H)-ones as anticonvulsant and hypnotic agents” (Med Chem Res, 2011)
The source made the active and inactive calls. The rule behind the calls is not given here.

What was measured:
[1] = system: Mus musculus; experiment: Neurotoxicity against Mus musculus (mouse) at 100 mg/kg, ip measured at 4 hr by rotarod test; type: toxicity, organism-based; design: dose 100 mg/kg, route intraperitoneal; conditions: in vivo
[2] = system: Mus musculus; experiment: Neurotoxicity against Mus musculus (mouse) at 100 mg/kg, ip measured at 0.5 hr by rotarod test; type: toxicity, organism-based; design: dose 100 mg/kg, route intraperitoneal; conditions: in vivo
[3] = system: Mus musculus; experiment: Anticonvulsant activity in Mus musculus (mouse) assessed as protection against maximal electroshock-induced seizures at 100 mg/kg, ip administered 30 min prior to electroshock-challenge measured at 0.5 hr; type: functional, organism-based; design: dose 100 mg/kg
[4] = system: Mus musculus; experiment: Anticonvulsant activity in Mus musculus (mouse) assessed as protection against maximal electroshock-induced seizures at 100 mg/kg, ip administered 30 min prior to electroshock-challenge measured at 4 hr; type: functional, organism-based; design: dose 100 mg/kg
[5] = system: Mus musculus; experiment: Hypnotic activity in Mus musculus Kunming (mouse) assessed as increase in phenobarbital-induced sleep duration at 60 mg/kg, ip administered 30 min prior to phenobarbital-induction; type: functional, organism-based; design: dose 60 mg/kg
[6] = system: Mus musculus; experiment: Neurotoxicity against Mus musculus (mouse) at 300 mg/kg, ip measured at 4 hr by rotarod test; type: toxicity, organism-based; design: dose 300 mg/kg, route intraperitoneal; conditions: in vivo
[7] = system: Mus musculus; experiment: Neurotoxicity against Mus musculus (mouse) at 300 mg/kg, ip measured at 0.5 hr by rotarod test; type: toxicity, organism-based; design: dose 300 mg/kg, route intraperitoneal; conditions: in vivo
[8] = system: Mus musculus; experiment: Anticonvulsant activity in Mus musculus (mouse) assessed as protection against maximal electroshock-induced seizures at 300 mg/kg, ip administered 30 min prior to electroshock-challenge measured at 4 hr; type: functional, organism-based; design: dose 300 mg/kg
[9] = system: Mus musculus; experiment: Anticonvulsant activity in Mus musculus (mouse) assessed as protection against maximal electroshock-induced seizures at 300 mg/kg, ip administered 30 min prior to electroshock-challenge measured at 0.5 hr; type: functional, organism-based; design: dose 300 mg/kg
[10] = Protective index, ratio of TD50 for neurotoxicity to ED50 for anticonvulsant activity in mouse; type: toxicity, organism-based; conditions: in vivo, read-out: Ratio TD50/ED50
[11] = system: Mus musculus; experiment: Anticonvulsant activity in ip dosed Mus musculus (mouse) assessed as protection against maximal electroshock-induced seizures administered 30 min prior to electroshock-challenge measured at 4 hr; type: functional
[12] = Neurotoxicity against ip dosed Mus musculus (mouse) by rotarod test; type: toxicity, organism-based; conditions: in vivo
[13] = system: Mus musculus; experiment: Hypnotic activity in Mus musculus Kunming (mouse) assessed as increase in phenobarbital-induced sleep duration at 10 mg/kg, ip administered 30 min prior to phenobarbital-induction; type: functional, organism-based; design: dose 10 mg/kg
[14] = system: Mus musculus; experiment: Hypnotic activity in ip dosed Mus musculus Kunming (mouse) assessed as increase in phenobarbital-induced sleep duration administered 30 min prior to phenobarbital-induction; type: functional, organism-based
[15] = system: Mus musculus; experiment: Anticonvulsant activity in Mus musculus (mouse) assessed as protection against maximal electroshock-induced seizures at 30 mg/kg, ip administered 30 min prior to electroshock-challenge measured at 0.5 hr; type: functional, organism-based; design: dose 30 mg/kg
[16] = system: Mus musculus; experiment: Hypnotic activity in Mus musculus Kunming (mouse) assessed as increase in phenobarbital-induced sleep duration at 30 mg/kg, ip administered 30 min prior to phenobarbital-induction; type: functional, organism-based; design: dose 30 mg/kg
[17] = system: Mus musculus; experiment: Anticonvulsant activity in Mus musculus (mouse) assessed as protection against maximal electroshock-induced seizures at 30 mg/kg, ip administered 30 min prior to electroshock-challenge measured at 4 hr; type: functional, organism-based; design: dose 30 mg/kg
[18] = system: Mus musculus; experiment: Hypnotic activity in Mus musculus Kunming (mouse) assessed as increase in phenobarbital-induced sleep duration at 60 mg/kg, ip administered 30 min prior to phenobarbital-induction (reference value: 20.9 +/- 2.31 min); type: functional; conditions: route intraperitoneal

| SMILES | Activity [1] | Activity [2] | Activity [3] | Activity [4] | selectivity ratio [10] | ED50 [11] [mg/kg] | TD50 [12] [mg/kg] | other results |
| --- | --- | --- | --- | --- | --- | --- | --- | --- |
| CCOc1ccc2c(c1)C(=O)NCCO2 | Non-toxic | Non-toxic | inactive | inactive |  |  |  |  |
| CN1CCN(C(=O)OC2c3nccnc3C(=O)N2c2ccc(Cl)cn2)CC1 (stereo not drawn) |  |  |  |  |  |  |  | Activity [5]: Active |
| CCCCCCCCCCCCOc1ccc2c(c1)C(=O)NCCO2 |  |  |  |  |  |  |  | Activity [6]: Non-toxic; Activity [7]: Toxic; Activity [8]: inactive; Activity [9]: Active |
| O=C1NCCOc2ccc(OCc3cccc(Cl)c3)cc21 | Non-toxic | Toxic | Active | inactive |  |  |  |  |
| COc1ccc(COc2ccc3c(c2)C(=O)NCCO3)cc1 | Non-toxic | Non-toxic | inactive | inactive |  |  |  |  |
| Cc1ccc(COc2ccc3c(c2)C(=O)NCCO3)cc1 | Non-toxic | Toxic | inactive | inactive |  |  |  |  |
| O=C1NCCOc2ccc(OCc3ccccc3)cc21 | Non-toxic | Toxic | Active | inactive | 1 | 73.1 | 76.2 |  |
| NC(=O)N1c2ccccc2C=Cc2ccccc21 [CARBAMAZEPINE] |  |  |  |  | 6.4 |  |  |  |
| CCCCCCCOc1ccc2c(c1)C(=O)NCCO2 | Non-toxic | Toxic |  |  | 2.5 | 19 | 47.3 | Activity [13]: inactive; Activity [14]: Dose-dependent effect; Activity [15]: Active; Activity [16]: Active; Activity [17]: inactive; Time [18]: 45.7 min |
| O=C1NCCOc2ccc(OCc3ccc(Cl)cc3)cc21 | Non-toxic | Toxic | inactive | inactive |  |  |  |  |
| O=C1NCCOc2ccc(OCc3ccccc3F)cc21 | Non-toxic | Toxic | Active | inactive | 1.2 | 45.6 | 52.8 |  |
| O=C1CCc2cc(OCc3ccccc3)ccc2N1 |  |  |  |  |  |  | > 300 |  |
| O=C1NCCOc2ccc(OCc3ccc(Br)cc3)cc21 |  |  |  |  |  |  |  | Activity [6]: Non-toxic; Activity [7]: Toxic; Activity [8]: inactive; Activity [9]: Active |
| O=C1NCCOc2ccc(OCc3ccc(F)cc3)cc21 |  |  |  |  |  |  |  | Activity [6]: Non-toxic; Activity [7]: Toxic; Activity [8]: Active; Activity [9]: Active |
| O=C1NCCOc2ccc(OCc3ccccc3Cl)cc21 |  |  |  |  |  |  |  | Activity [6]: Non-toxic; Activity [7]: Toxic; Activity [8]: inactive; Activity [9]: Active |
| O=C1NCCOc2ccc(OCc3cccc(F)c3)cc21 | Non-toxic | Toxic | Active | inactive | 1 | 73.1 | 73.1 |  |
| COc1ccc(COc2ccc3c(c2)C(=O)NCCO3)cc1OC | Non-toxic | Toxic | inactive | inactive |  |  |  |  |
| CCCCOc1ccc2c(c1)C(=O)NCCO2 | Non-toxic | Toxic | Active | Active |  |  |  |  |
| CCCOc1ccc2c(c1)C(=O)NCCO2 | Non-toxic | Toxic | Active | inactive | 2.2 | 78.3 | 170 |  |
| CCCCCOc1ccc2c(c1)C(=O)NCCO2 | Non-toxic | Toxic | Active | inactive | 1.9 | 56.8 | 106 |  |
| CCCCCCCCOc1ccc2c(c1)C(=O)NCCO2 | Non-toxic | Toxic | Active | inactive |  |  |  |  |
| CCC1(c2ccccc2)C(=O)NC(=O)NC1=O [PHENOBARBITAL] |  |  |  |  |  | 21.8 |  |  |
| O=C1NCCOc2ccc(OCc3c(Cl)cccc3Cl)cc21 | Non-toxic | Toxic | inactive | inactive |  |  |  |  |
| O=C1NCCOc2ccc(OCc3ccccc3Br)cc21 | Non-toxic | Toxic | inactive | inactive |  |  |  |  |
| CCCCCCOc1ccc2c(c1)C(=O)NCCO2 | Non-toxic | Toxic | Active | Active | 2.2 | 47.3 | 106 |  |
